Literature values in patent publication US20080139531A1, “USE OF CONNECTIVE TISSUE MAST CELL STABILIZERS TO FACILITATE OCULAR SURFACE RE-EPITHELIZATION AND WOUND REPAIR” (ALCON MANUFACTURING LTD., priority 2006, published 2008).

Tested on: human conjunctival mast cells
Settings: qualitative statement citing Yanni et al., 1997

Structure (SMILES) | inhibition of histamine release from human conjunctival mast cells
CN(C)CCC=C1c2ccccc2COc2ccc(CC(=O)O)cc21 [olopatadine, 11-(3-dimethylaminopropylidene)-6,11-dihydrodibenz[b,e]oxepin-2-acetic acid] | inhibits histamine release
Cc1cccn2c(=O)c(-c3nnn[nH]3)cnc12 [pemirolast] | Unlike cromolyn and pemirolast, olopatadine inhibits histamine release
